Each structure is given as a SMILES string.

The test system of this test is frog. The experiment in a line: Potency with reference to carbamylcholine at the frog neuromuscular junction, expressed as reciprocal of equipotent molar ratio. The class given is functional.
In the case of `C[N+]1(C)CC=C(C(N)=O)CC1`, the Potency amounted to 0.77.

Take `C[N+]1(C)CCC(C(N)=O)CC1`: the Potency was 0.052.

Consider `CC(=O)C1=CC[N+](C)(C)CC1`, for which the Potency is 50.

With `C[N+]1(C)CCN(C(N)=O)CC1`, the Potency is 0.15.

On to `CC(=O)C1CC[N+](C)(C)CC1`, for which the Potency was found to be 9.1.

As to `CC(=O)N1CC[N+](C)(C)CC1`, the Potency worked out at 2.6.

(Values after ChEMBL document CHEMBL1124383, “Carbamyl analogues of potent nicotinic agonists: pharmacology and computer-assisted molecular modeling study” (J Med Chem, 1989).)
